Assay: mn = molality of the nth substance listed, in mol/kg
Conditions: 101 kPa, Liquid, Vibrating tube method

NCC(=O)N[C@@H](Cc1ccccc1)C(=O)NCC(=O)O [glycyl-L-phenylalanylglycine] + O
Conditions	mass density [kg/m3]
288.15 K, m1 = 0.005986	999.628
288.15 K, m1 = 0.008946	999.888
288.15 K, m1 = 0.01159	1000.12
288.15 K, m1 = 0.01398	1000.33
288.15 K, m1 = 0.01783	1000.66
288.15 K, m1 = 0.02035	1000.89
288.15 K, m1 = 0.02318	1001.13
288.15 K, m1 = 0.0251	1001.3
303.15 K, m1 = 0.00896	996.415
303.15 K, m1 = 0.01148	996.632
303.15 K, m1 = 0.01353	996.804
303.15 K, m1 = 0.01556	996.971
303.15 K, m1 = 0.01814	997.19
303.15 K, m1 = 0.01958	997.317
303.15 K, m1 = 0.02246	997.559
303.15 K, m1 = 0.02447	997.735
313.15 K, m1 = 0.004093	992.563
313.15 K, m1 = 0.00896	992.969
313.15 K, m1 = 0.01149	993.182
313.15 K, m1 = 0.01353	993.351
313.15 K, m1 = 0.01556	993.516
313.15 K, m1 = 0.01761	993.683
313.15 K, m1 = 0.02033	993.916
313.15 K, m1 = 0.02333	994.159
313.15 K, m1 = 0.02522	994.324

NCC(=O)N1CCC[C@H]1C(=O)NCC(=O)O [glycyl-L-prolylglycine] + O
Conditions	mass density [kg/m3]
288.15 K, m1 = 0.02017	1000.83
288.15 K, m1 = 0.0252	1001.26
288.15 K, m1 = 0.02989	1001.66
288.15 K, m1 = 0.0347	1002.07
288.15 K, m1 = 0.04017	1002.54
288.15 K, m1 = 0.04486	1002.93
288.15 K, m1 = 0.04775	1003.19
288.15 K, m1 = 0.05375	1003.69
303.15 K, m1 = 0.02292	997.573
303.15 K, m1 = 0.02697	997.912
303.15 K, m1 = 0.03212	998.333
303.15 K, m1 = 0.03677	998.728
303.15 K, m1 = 0.04242	999.195
303.15 K, m1 = 0.04731	999.598
303.15 K, m1 = 0.05219	1000.01
313.15 K, m1 = 0.02757	994.502
313.15 K, m1 = 0.03212	994.873
313.15 K, m1 = 0.03715	995.286
313.15 K, m1 = 0.04242	995.724
313.15 K, m1 = 0.04731	996.116
313.15 K, m1 = 0.05169	996.482

CC(C)[C@H](NC(=O)CN)C(=O)NCC(=O)O [glycyl-L-valylglycine] + O
Conditions	mass density [kg/m3]
288.15 K, m1 = 0.01862	1000.45
288.15 K, m1 = 0.02808	1001.13
288.15 K, m1 = 0.03769	1001.83
288.15 K, m1 = 0.04662	1002.47
288.15 K, m1 = 0.05168	1002.82
288.15 K, m1 = 0.05581	1003.11
288.15 K, m1 = 0.06152	1003.53
288.15 K, m1 = 0.07369	1004.39
288.15 K, m1 = 0.08031	1004.86
303.15 K, m1 = 0.02786	997.6
303.15 K, m1 = 0.0373	998.253
303.15 K, m1 = 0.04619	998.869
303.15 K, m1 = 0.05567	999.521
303.15 K, m1 = 0.06481	1000.14
303.15 K, m1 = 0.07464	1000.82
303.15 K, m1 = 0.08365	1001.43
303.15 K, m1 = 0.09397	1002.14
313.15 K, m1 = 0.02103	993.668
313.15 K, m1 = 0.02584	993.998
313.15 K, m1 = 0.03709	994.764
313.15 K, m1 = 0.05558	996.017
313.15 K, m1 = 0.06483	996.652
313.15 K, m1 = 0.0741	997.273
313.15 K, m1 = 0.08323	997.9
313.15 K, m1 = 0.09182	998.467

Reference: the NIST ThermoML archive (doi:10.1016/j.jct.2009.05.011)
